# Experimental data as given in patent publication US9260439B2, “Dihydropyrrolopyrimidine derivatives” (PFIZER INC., priority 2014, dated 2016).
# Counter-ions that a name gives are not always drawn.
# Target: truncated PI3Kα (p110α/iSH2 p85α) (Homo sapiens (Human), UniProt P42336)
# Experiment: PI3KA_Act fluorescence polarization kinase assay (Ki)
# Assay type: biochemical
# Details: 1 mM ATP
# Excerpt: 2) p110α-iSH2 p85α Complex (Full Length p110α and p85α iSH2)(“PI3KA_Act”)
# Genes encoding for full length p110α and p85α nSH-iSH2=niSH2 (p85a aminoacids 322-600) subunits of PI3Kα complex were subcloned from existing constructs into pFASTBAC Dual vector (Life Technologies, Carlsbad, Calif.) using standard cloning procedures. Gene encoding p110α subunit was subcloned into polyhedrine promoter while gene encoding p85α niSH2 domains was subcloned into p10 promoter. Additionally, Human Rhinovirus 3C Protease (“HRV 3C”) site was introduced between nSH2 and iSH2, replacing aminoacids 431-438 of p85α with […] HRV 3C recognition sequence, using standard QuickChange mutagenesis protocol (Agilent Technologies, CA). Recombinant baculovirus was generated using Bac-to-Bac protocol (Life Technologies, Carlsbad, Calif.). Large scale expression was conducted in Sf21 (Life Technologies, Carlsbad, Calif.) cells at a multiplicity of infection (“MOI”)=1 for 48 hours. Cells were lyzed in 50 mM Tris pH 8.0, 250 mM NaCl, 5% glycerol, 0.25 mM TCEP, and 20 mM imidazole. The p110α-niSH2 p85α complex was purified from clarified supernatant using Immobilized Metalo Affinity Chromatography (“IMAC”). The protein was eluted from the column using 50 mM Tris pH 8.0, 200 mM NaCl, 0.25 mM TCEP, and 200 mM imidazole. Following elution p110α-niSH2 p85α complex was dialyzed against 4 liters of 50 mM Tris pH 8.0, 200 mM NaCl, 0.25 mM TCEP, and 40 mM imidazole in the presence of PreScission Protease (1:70 molar ratio of Protease to Protein) and TEV protease (1:40 molar ratio protease to protein) for 16 hours at 4° C. The protein was further purified using reverse IMAC to remove cleaved histidine tag and contaminants captured during initial IMAC purification. The mixture of p110α-iSH2 p85α complex and cleaved nSH2 was recovered in reverse IMAC 40 mM imidazole flow through and 60 mM imidazole wash fractions. Those fractions were pulled together and loaded on Superdex 200 26/60 SEC column equilibrated in 25 mM Tris, pH 8.0, 100 mM NaCl, 2% glycerol, and 2 mM TCEP. Following SEC, chromatography peak fractions containing p110α-iSH2 p85α complex were pulled and concentrated to 4.3 mg/mL. Purity and integrity of the complex was confirmed using LCMS, analytical SEC and SDS-PAGE (sodium dodecyl sulfate polyacrylamide gel electrophoresis) analysis.
# The biochemical assays of kinase activity of full-length PI3Kα (full-length p110α/p85a) or truncated PI3Kα (p110α/iSH2 p85a) were conducted using a fluorescence polarization format similar to the procedure of Yuan J., et al., (2011) “PF-04691502, a Potent and Selective Oral Inhibitor of PI3K and mTOR Kinases with Antitumor Activity”, Mol Cancer Ther. 10, 2189-2199. The enzymatic reactions were conducted in 50 μL volumes in 96-well plates. The reactions contained human recombinant PI3Kα (2 nM full-length p110α/p85α or 0.5 nM p110α/iSH2 p85) and 30 μM phosphatidylinositol 4,5-bisphosphate (“PIP2”) (Cayman Chemical Company, Ann Arbor, Mich.) and were sonicated for 1 minute prior to adding PI3Kα enzyme (PI3KA_Act or PI3KA_FL), DMSO or test compound (12-point 3-fold serial dilution, 3 μM top dose, 2° A) DMSO final concentration), 5 mM MgCl2, 50 mM HEPES pH 7.4, 150 mM NaCl, 1 mM DTT ((2S,3S)-1,4-bis(sulfanyl)butane-2,3-diol), and 0.05% 3-[(3-cholamidopropyl)dimethylammonio]-1-propanesulfonate (“CHAPS”). […] The reactions were incubated for 30 min at room temperature, stopped with EDTA pH 8 (10 mM final concentration). In a detection plate, 15 μL of detector/probe mixture, containing 480 nM GST-Grp1 PH domain protein (University of Dundee, Dundee, UK) and 12 nM carboxytetramethylrhodamine (“TAMRA”)-tagged fluorescent phosphatidylinositol (3,4,5)-triphosphate (“PIP3”) (Echelon Biosciences, Inc., Salt Lake City, Utah) in assay buffer, was mixed with 15 μL of kinase reaction mixture. The plate was shaken for 30 minutes and fluorescence polarization values were measured on an LJL Analyst HT plate reader (Molecular Devices, Sunnyvale, Calif.). […]
# Sequence of truncated PI3Kα (p110α/iSH2 p85α) (P42336 whole entry, the tested form may be a part): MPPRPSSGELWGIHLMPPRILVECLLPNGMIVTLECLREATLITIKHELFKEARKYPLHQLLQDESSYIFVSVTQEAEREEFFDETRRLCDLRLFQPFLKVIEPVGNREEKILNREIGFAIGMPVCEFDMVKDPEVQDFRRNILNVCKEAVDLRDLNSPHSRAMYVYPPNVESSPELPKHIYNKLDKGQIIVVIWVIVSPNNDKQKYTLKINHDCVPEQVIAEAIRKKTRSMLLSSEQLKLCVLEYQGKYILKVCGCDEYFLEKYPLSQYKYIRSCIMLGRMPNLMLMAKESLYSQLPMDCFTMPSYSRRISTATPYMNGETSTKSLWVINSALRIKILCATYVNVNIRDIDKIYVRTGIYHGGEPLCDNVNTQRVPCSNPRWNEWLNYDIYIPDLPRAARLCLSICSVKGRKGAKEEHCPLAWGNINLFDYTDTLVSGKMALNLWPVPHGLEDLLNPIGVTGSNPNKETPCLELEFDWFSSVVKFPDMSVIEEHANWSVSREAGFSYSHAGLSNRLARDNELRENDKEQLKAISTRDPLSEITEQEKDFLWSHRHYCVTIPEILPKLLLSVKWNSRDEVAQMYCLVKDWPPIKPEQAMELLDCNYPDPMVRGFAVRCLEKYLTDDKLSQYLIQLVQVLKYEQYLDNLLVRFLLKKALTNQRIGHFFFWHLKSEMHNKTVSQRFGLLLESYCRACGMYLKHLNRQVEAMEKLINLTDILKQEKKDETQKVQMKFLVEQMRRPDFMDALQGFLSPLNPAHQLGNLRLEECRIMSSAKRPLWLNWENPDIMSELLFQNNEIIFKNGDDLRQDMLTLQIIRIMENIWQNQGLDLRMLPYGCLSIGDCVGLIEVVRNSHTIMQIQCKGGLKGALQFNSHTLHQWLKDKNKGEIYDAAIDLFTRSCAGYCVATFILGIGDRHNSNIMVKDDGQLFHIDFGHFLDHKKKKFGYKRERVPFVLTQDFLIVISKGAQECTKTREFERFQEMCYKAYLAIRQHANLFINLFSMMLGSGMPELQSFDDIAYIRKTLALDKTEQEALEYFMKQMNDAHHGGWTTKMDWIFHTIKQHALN
smiles,measurement,setting,value
CNS(=O)(=O)N1CCC(C)(N2CCc3c(-c4cnc(N)nc4)nc(N4CCOCC4)nc32)C1 (racemic) [Example 162],PI3KA_Act Ki,,<0.018 nM
"CC(C)(C)OC(=O)N1CCCC(C)(N2CCc3c(-c4cnc(N)nc4)nc(N4CCOCC4)nc32)C1 (racemic) [Example 434, tert-butyl 3-[4-(2-aminopyrimidin-5-yl)-2-(morpholin-4-yl)-5,6-dihydro-7H-pyrrolo[2,3-d]pyrimidin-7-yl]-3-methylpiperidine-1-carboxylate]",PI3KA_Act Ki,,0.220 nM
"CS(=O)(=O)N1CC2CC2(N2CCc3c(-c4cnc(N)nc4)nc(N4CCOCC4)nc32)C1 (racemic) [Example 435, 5-{7-[3-(methylsulfonyl)-3-azabicyclo[3.1.0]hex-1-yl]-2-(morpholin-4-yl)-6,7-dihydro-5H-pyrrolo[2,3-d]pyrimidin-4-yl}pyrimidin-2-amine]",PI3KA_Act Ki,,0.132 nM
"C[C@]1(N2CCc3c(-c4cnc(N)nc4)nc(N4CCOCC4)nc32)CCN(C2CCNC2=O)C1 (single isomer, unassigned) [Example 7]",PI3KA_Act Ki,,0.091 nM
"CCC(C)(O)C(=O)N1CC[C@](C)(N2CCc3c(-c4cnc(N)nc4)nc(N4CCOCC4)nc32)C1 (single isomer, unassigned) [Example 273]",PI3KA_Act Ki,,0.087 nM
"CCC(C)(O)C(=O)N1CC[C@](C)(N2CCc3c(-c4cnc(N)nc4)nc(N4CCOCC4)nc32)C1 (single isomer, unassigned) [Example 274]",PI3KA_Act Ki,,0.145 nM
"CC(C(N)=O)C(=O)N1CC[C@](C)(N2CCc3c(-c4cnc(N)nc4)nc(N4CCOCC4)nc32)C1 (single isomer, unassigned) [Example 316]",PI3KA_Act Ki,,0.019 nM
"C[C@@]1(N2CCc3c(-c4cnc(N)nc4)nc(N4CCOCC4)nc32)CCN(C(=O)C(O)C2CC2)C1 (single isomer, unassigned) [Example 326]",PI3KA_Act Ki,,0.048 nM
"C[C@@]1(N2CCc3c(-c4cnc(N)nc4)nc(N4CCOCC4)nc32)CCN(C(=O)C(O)C2CC2)C1 (single isomer, unassigned) [Example 327]",PI3KA_Act Ki,,0.028 nM
"CC1(C(=O)N2CC[C@](C)(N3CCc4c(-c5cnc(N)nc5)nc(N5CCOCC5)nc43)C2)CCCO1 (single isomer, unassigned) [Example 375, hydrochloride]",PI3KA_Act Ki,hydrochloride,0.043 nM
"CC1(C(=O)N2CC[C@](C)(N3CCc4c(-c5cnc(N)nc5)nc(N5CCOCC5)nc43)C2)CCCO1 (single isomer, unassigned) [Example 376]",PI3KA_Act Ki,,0.090 nM
"CN1CCC(N2CC[C@](C)(N3CCc4c(-c5cnc(N)nc5)nc(N5CCOCC5)nc43)C2)C1=O (single isomer, unassigned) [Example 426]",PI3KA_Act Ki,,0.051 nM
"CN1CCC(N2CC[C@](C)(N3CCc4c(-c5cnc(N)nc5)nc(N5CCOCC5)nc43)C2)C1=O (single isomer, unassigned) [Example 427]",PI3KA_Act Ki,,0.073 nM
"C[C@]1(N2CCc3c(-c4cnc(N)nc4)nc(N4CCOCC4)nc32)CCN(C2CCCNC2=O)C1 (single isomer, unassigned) [Example 428]",PI3KA_Act Ki,,0.067 nM
"C[C@]1(N2CCc3c(-c4cnc(N)nc4)nc(N4CCOCC4)nc32)CCN(C2CCCNC2=O)C1 (single isomer, unassigned) [Example 429]",PI3KA_Act Ki,,0.160 nM
"CC1(N2CCc3c(-c4cnc(N)nc4)nc(N4CCOCC4)nc32)CCCNC1 (single isomer, unassigned) [Example 431, 5-[7-(3-methylpiperidin-3-yl)-2-(morpholin-4-yl)-6,7-dihydro-5H-pyrrolo[2,3-d]pyrimidin-4-yl]pyrimidin-2-amine hydrochloride]",PI3KA_Act Ki,hydrochloride,14.544 nM
